Tests used:
Assay type in all cases: biochemical
Arabidopsis β-RCA = biological target: T1, Arabidopsis β-RCA (Arabidopsis thaliana, UniProt P10896); experiment: continuous coupled Rubisco activation assay (dPGM, enolase, PEP carboxylase, malate dehydrogenase; NADH, A340); settings: ADP plus ATP 5 mM total at ADP:ATP 0.33; tobacco Rubisco ER form not restated for this set; pH 8, 30 °C, 10 mM MgCl2
T1 construct: recombinant, expressed in Escherichia coli and purified
T1 sequence (P10896 59-446 isoform P10896-2): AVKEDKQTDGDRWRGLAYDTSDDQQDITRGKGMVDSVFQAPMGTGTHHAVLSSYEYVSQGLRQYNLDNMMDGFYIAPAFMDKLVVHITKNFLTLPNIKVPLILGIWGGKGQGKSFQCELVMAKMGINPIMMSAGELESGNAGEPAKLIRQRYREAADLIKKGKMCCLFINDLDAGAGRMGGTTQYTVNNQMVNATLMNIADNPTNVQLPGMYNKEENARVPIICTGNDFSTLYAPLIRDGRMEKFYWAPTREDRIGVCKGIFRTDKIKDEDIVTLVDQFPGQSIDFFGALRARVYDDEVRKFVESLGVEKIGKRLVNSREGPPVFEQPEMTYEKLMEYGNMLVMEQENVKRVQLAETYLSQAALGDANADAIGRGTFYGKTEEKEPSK

[1] = biological target: T2, tobacco Rubisco (wild-type) (Nicotiana tabacum, UniProt P00876); experiment: continuous coupled 3-PGA formation assay (NADH, A340); settings: ECM form, 0.5 or 2 mM RuBP, 10 mM NaHCO3, 10 mM MgCl2, 5 mM ATP, pH 8, 30 °C; RuBP also inhibits as tight ER complex
T2 construct: gene rbcL; native, purified from tobacco leaves; converted to ER form or carbamylated ECM form; with Ribulose bisphosphate carboxylase small subunit, chloroplastic

[2] = biological target: T3, His-tagged modified Rubisco (Nicotiana tabacum, UniProt P00876); experiment: as above; settings: ECM form, 0.5 or 2 mM RuBP, 10 mM NaHCO3, 10 mM MgCl2, 5 mM ATP, pH 8, 30 °C; RuBP also inhibits as tight ER complex
T3 construct: gene rbcL; six histidines added to the C-terminus of the large subunit; from transgenic tobacco plants; with Ribulose bisphosphate carboxylase small subunit, chloroplastic
T3 sequence (P69249 58-180, other chains not shown): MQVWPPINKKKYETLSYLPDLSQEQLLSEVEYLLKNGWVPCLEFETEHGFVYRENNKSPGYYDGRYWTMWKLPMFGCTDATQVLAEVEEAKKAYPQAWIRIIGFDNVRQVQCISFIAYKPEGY

T2 sequence (P69249 58-180, other chains not shown): as above

Question: `Nc1ncnc2c1ncn2[C@@H]1O[C@H](COP(=O)(O)OP(=O)(O)O)[C@@H](O)[C@H]1O` [ADP] was tested. Which “% inhibition at 0.33 ADP:ATP” value (Arabidopsis β-RCA) did it give?
Answer: Its value is 25%.

Question: What does the source list for `O=C(COP(=O)(O)O)[C@H](O)[C@H](O)COP(=O)(O)O` [RuBP]?
Answer: continuous coupled 3-PGA formation assay (NADH, A340) [1]: specific activity of the ECM form of wild-type and modified Rubisco; continuous coupled 3-PGA formation assay (NADH, A340) [2]: specific activity of the ECM form of wild-type and modified Rubisco

— paper PMC3923112, “A non-radioactive method for measuring Rubisco activase activity in the presence of variable ATP: ADP ratios, including modifications for measuring the activity and activation state of Rubisco” (Photosynthesis Research, 2014)
